{"source": "patent US9241889B2", "about": "“Oral compositions comprising sodium dodecylbenzene sulfonate” (Glaxo Group Limited, priority 2010, dated 2016)", "key": {"[1]": {"test": "Hydroxyapatite Stain Prevention Model (HASP)", "experimental": "A 96 well hydroxyapatite coated microtitre plate was treated with whole unstimulated human saliva (100 μl per well) at 37° C./100 rpm. After 1 hour the plate was washed to remove any unbound components and 200 μl of each test active was transferred to the plate in columns along with a positive and negative control (5% sodium tripolyphosphate, STP), and water respectively) and the plate returned to the incubator. After 10 minutes the plate was once again washed and the plate was stained by the application of 200 μl of fresh tea solution (1 teabag (PG tips)/50 ml of deionised water). After an additional 10 minutes of incubation, the tea was removed and the plate washed. Finally, the bound stain was desorbed by the application of 200 μl of 2.5M citric acid per well. After a minimum of 12 hours, 180 μl of the tea/citric acid solutions were transferred to a clean, normal (not HA coated) 96 well microtitre plate and the absorption measured 405 nm."}, "[2]": {"test": "Hydroxyapatite Tea Stain Removal Model (HATSR)", "experimental": "A 96 well hydroxyapatite coated microtitre plate was treated with 100 μl aliquots of tea per well (1 teabag (PG Tips)/50 ml of deionised water) and the plate incubated at 37° C./100 rpm. After 10 minutes the plate was washed with deionised water and dried at 37° C. overnight. The test actives (200 μl per well) were added into each column of the tea coated plate along with the positive and negative control (5% sodium tripolyphosphate (STP) and water respectively) and the plate returned to the incubator. After 10 minutes the plate was once again washed and the bound stain was desorbed by the application of 200 μl of 2.5M citric acid per well. After a minimum of 12 hours, 180 μl of the tea/citric acid solutions were transferred to a clean, normal (not HA coated) 96 well microtitre plate and the absorption measured 405 nm."}}, "data": [{"substance": "sodium dodecylbenzene sulphonate [SDDBS]", "values": [{"measurement": "stain prevention versus water negative control", "setting": "[1]; 0.1% SDDBS, pH 7, FIG. 1", "value": "only directionally superior"}, {"measurement": "stain prevention (uptake of dietary stain onto HASP model oral surfaces)", "setting": "[1]; SDDBS solutions 0.1%-10%, pH 7, n=8, FIG. 1", "value": "prevents the uptake of dietary stain"}, {"measurement": "stain prevention versus positive control 5% STP", "setting": "[1]; all SDDBS concentrations 0.1%-10%, pH 7, FIG. 1", "value": "none were as effective as the positive control STP"}, {"measurement": "stain prevention versus water negative control", "setting": "[1]; all SDDBS concentrations except 0.1%, pH 7, FIG. 1", "value": "statistically superior to the water negative control"}, {"measurement": "stain prevention versus SLS", "setting": "[1]; equivalent concentration (1% surfactant), pH 7, n=8, FIG. 3", "value": "statistically superior to sodium lauryl sulphate (SLS)"}, {"measurement": "stain removal", "setting": "[2]; SDDBS solutions 0.1%-10%, pH 7, n=8, FIG. 2", "value": "removes stain in a dose dependent manner"}, {"measurement": "stain removal versus water negative control", "setting": "[2]; all SDDBS concentrations except 0.125%, pH 7, FIG. 2", "value": "statistically superior to the water negative control"}, {"measurement": "stain removal versus positive control 5% STP", "setting": "[2]; all SDDBS concentrations, pH 7, FIG. 2", "value": "none were as effective as the positive control STP"}]}]}
